Measured values taken from patent publication US11882828B2, “Mosquito vector control compositions, methods and products utilizing same” (priority 2015, dated 2024).

Tests used:
[1] = system: Aedes aegypti (Yellow fever mosquito); test: whole plant or invertebrate; details: Aedes aegypti
Procedure: […] Once the deposits were dry, five non-blood fed adult female Aedes aegypti (between two to five days old) were added to each well, and sustained with a 10% sucrose solution in a cotton wool plug. Assessment of the knockdown after 1 hour, and mortality after 48 hours was carried out.
(§1) In case of multiple tests, the mean value is reported.

[2] = system: Ae. aegypti Caymon; test: Example B4: cross resistance study, 6-well plate; format: in vivo
Procedure: (§2) In each study, a set of plates were infested with a known insecticide susceptible strain of mosquitoes from the same genera as the resistant strains.
(§3) Assessment of the knockdown after 60 minutes and mortality after 24 hours was carried out. Each treatment was replicated a minimum of four times, with the mean knockdown or mortality recorded.
(§4) A comparison of the knockdown and mortality of the resistant strain of mosquitoes was made to that of the susceptible to identify evidence of cross resistance.

[3] = system: An. Gambiae Kisumu sus; test: Example B4: cross resistance study, 6-well plate; format: in vivo
Procedure: as §2, §3, §4

[4] = system: Ae. Aegypti New Orleans; test: Example B4: cross resistance study, 6-well plate; format: in vivo
Procedure: as §2, §3, §4

[5] = system: An. Arabiensis Ndjamina; test: Example B4: cross resistance study, 6-well plate; format: in vivo
Procedure: as §2, §3, §4

[6] = system: An. Gambiae Kisumu rdl; test: Example B4: cross resistance study, 6-well plate; format: in vivo
Procedure: as §2, §3, §4

[7] = system: An. Arabiensis Moz sus; test: Example B4: cross resistance study, 6-well plate; format: in vivo
Procedure: as §2, §3, §4

[8] = system: An. Gambiae Tiassalé; test: Example B4: cross resistance study, 6-well plate; format: in vivo
Procedure: as §2, §3, §4

[9] = system: An. stephensi; test: Example B4: cross resistance study, 6-well plate; format: in vivo
Procedure: as §2, §3, §4

[10] = system: Anopheles stephensi; test: Example B7: evaluation of insecticide impregnated polymer surfaces; format: in vivo; details: AI content 2 wt %, after one hour
Text: (§5) Preparation of polymeric sheets: Certain methoxyacrylate were Impregnated into three polymers: LDPE (low density polyethylene), HDPE (high density polyethylene) and PP (polypropylene) in different concentrations by mixing the respective polymer with a compound at high temperatures and the resultant polymeric material were then mould into thin discs or plaques.
(§6) Twenty four hours prior to the relevant assessment intervals, three to five day old non-blood fed adult mosquitoes were taken from the culture and lightly anaesthetised with carbon dioxide. Ten females were selected and placed in a 250 ml plastic cup, retained with a net lid, provided with a 10% sucrose solution soaked in a cotton wool bung and held under culturing environmental conditions.
(§7) After twenty four hours, impregnated polymer sheets (measuring about 150 mm in diameter and about 0.1 mm in thickness) were removed from storage and wrapped around the glazed side of an 11 cm ceramic tile and held in place with an elastic band. A cup of the pre-selected mosquitoes were again lightly anaesthetised with carbon dioxide and transferred from the holding cup to the base of a 9 cm plastic Petri dish. The relevant impregnated polymer sheet was placed over the Petri dish and held in place with an elastic band. Once the mosquitoes had recovered from the anaesthetic, ca. 1 minute, the impregnated polymer sheet was placed on a holding rack, such that treated side was at an angle of […] to the horizontal.
(§8) After one hour an assessment of mosquito knockdown was made. A mosquito was said to be knocked down if it was unable to right itself once it had fallen over. The mosquitoes were lightly anaesthetised again, and removed from the Petri dish exposure chamber and returned to the holding cups. The mosquitoes were supplied with a 10% sucrose solution soaked in a cotton wool bung and held under culturing environmental conditions. An assessment of mortality was made 24 hours after exposure. A mosquito was said to be dead if it is unable to right itself once it had fallen over.

[11] = system: Aedes aegypti; test: as above; format: in vivo; details: AI content 2 wt %, polymer 4 to 6 weeks old, after one hour
Text: as §5, §6, §7, §8

[12] = system: An. Gambiae Kisumu sus; test: Example B5: bottle based cross resistance study (CDC bottle assay); format: in vivo
Procedure: (§9) Based on the “CDC bottle assay” (described at http://www.cdc.gov/malaria/resources/pdf/fsp/ir_manual/ir_cdc_bioassay_en.pdf) 1 ml of ethanol containing a test compound at a defined concentration was added to a 250 ml glass bottle and the bottles were placed on a rolling table to coat the inner surfaces as the solvent evaporated. Once dry, twenty five non-blood fed adult female mosquitoes of the appropriate species and strains (each three day old) were aspirated from the stock culture and gently blown into the exposure bottles. The lid of the bottle was replaced and the bottle placed upright out of direct sun light under standard culture conditions, nominally 28C and 60-80% relative humidity.
(§10) A stopwatch was started, and the assessment of the knock-down were made after 15 minutes and 60 minutes. A mosquito was said to be knocked down if it was unable to stand, following the CDC definition. The bottles were replaced in an upright position when not being assessed.
(§11) After one hour the mosquitoes were carefully removed from the bottle with an aspirator and placed in a recovery cup. The mosquitoes were supplied with a 10% sucrose solution on a cotton wool bung, and stored under culture conditions. Assessments of the mortality were made after 24 hours.
(§12) Each treatment was replicated a minimum of four times, with the mean knockdown or mortality recorded. In each study, a set of bottles was infested with a known insecticide susceptible strain of mosquitoes from the same genera as the resistant strains.

[13] = system: An. Gambiae Tiassalé; test: as above; format: in vivo
Procedure: as §9, §10, §11, §12

[14] = system: An. stephensi; test: as above; format: in vivo
Procedure: as §9, §10, §11, §12

[15] = system: Anopheles stephensi (Indian malaria mosquito); test: whole plant or invertebrate; details: Anopheles stephensi
Procedure: […] Once the deposits were dry, five non-blood fed adult female Anopheles stephensi (between two to five days old) were added to each well, and sustained with a 10% sucrose solution in a cotton wool plug. Assessment of the knockdown after 1 hour, and mortality after 48 hours was carried out.
as §1

[16] = system: Anopheles stephensi; test: whole plant or invertebrate; details: Anopheles stephensi, 48 h
Procedure: (§13) The individual wells of six (6) well tissue culture plates were treated with 250 μl of an ethanol solution containing a test compound at a defined concentration. Once the deposits were dry, ten non-blood fed adult female Aedes aegypti or Anopheles stephensi (each between two to five day old) were added to each well, and sustained with a 10% sucrose solution in a cotton wool plug.
(§14) Assessment of the mortality was carried out at 48 hours.
(§15) Each treatment was replicated twice, with the mean mortality recorded.

[17] = system: Aedes aegypti; test: whole plant or invertebrate; details: Aedes aegypti, 48 h
Procedure: as §13, §14, §15

## CCC(=N\OC)/C(C)=N/OCc1ccccc1/C(=C\OC)C(=O)OC [Compound 4, Methyl(E)-3-methoxy-2-[2-[[(E)-[(2E)-2-methoxyimino-1-methyl-butylidene]amino]-oxymethyl]phenyl]prop-2-enoate]
[1]; 1 h, read-out: Knockdown
  pest or weed control at 20 ppm: 100%
[1]; 48 h
  mortality at 20 ppm: 100%
[2]; 2.00 ppm, after 60 minutes, Caymon
  Knockdown: 45%
[2]; Aedes aegypti, 24 h
  mortality at 2 ppm: 90%
[3]; 2.00 ppm, after 60 minutes, Kisumu sus
  Knockdown: 67%
[3]; Anopheles gambiae, 24 h
  mortality at 2 ppm: 95%
[4]; 2.00 ppm, after 60 minutes, New Orleans
  Knockdown: 75%
[4]; Aedes aegypti, 24 h
  mortality at 2 ppm: 100%
[5]; 2.00 ppm, after 60 minutes, Ndjamina
  Knockdown: 100%
[5]; Anopheles arabiensis, 24 h
  mortality at 2 ppm: 100%
[6]; 2.00 ppm, after 60 minutes, Kisumu rdl
  Knockdown: 30%
[6]; Anopheles gambiae, 24 h
  mortality at 2 ppm: 100%
[7]; 2.00 ppm, after 60 minutes, Moz sus
  Knockdown: 0%
[7]; Anopheles arabiensis, 24 h
  mortality at 2 ppm: 95%
[8]; 2.00 ppm, after 60 minutes, Tiassalé
  Knockdown: 70%
[8]; Anopheles gambiae, 24 h
  mortality at 2 ppm: 100%
[9]; 2.00 ppm, after 60 minutes, An. stephensi
  Knockdown: 95%
[9]; Anopheles stephensi, 24 h
  mortality at 2 ppm: 100%
[10]; HDPE, polymer 4 to 6 weeks old
  knock-down: 93%
[10]; HDPE, polymer 6 to 8 weeks old
  knock-down: 77%
[10]; LDPE, polymer 4 to 6 weeks old
  knock-down: 87%
[10]; LDPE, polymer 6 to 8 weeks old
  knock-down: 70%
[10]; PP, polymer 4 to 6 weeks old
  knock-down: 100%
[10]; PP, polymer 6 to 8 weeks old
  knock-down: 90%
[11]; HDPE
  knock-down: 53%
[11]; LDPE
  knock-down: 63%
[11]; PP
  knock-down: 63%
[12]; 20 ppm, bottle, Kisumu sus
  Knockdown (%) at 15 mins: 48%
  Knockdown (%) at 60 mins: 100%
[12]; Anopheles gambiae
  mortality at 20 ppm: 100%
[13]; 20 ppm, bottle, Tiassalé
  Knockdown (%) at 15 mins: 17%
  Knockdown (%) at 60 mins: 96%
[13]; Anopheles gambiae
  mortality at 20 ppm: 77%
[14]; 20 ppm, bottle, An. stephensi
  Knockdown (%) at 15 mins: 10%
  Knockdown (%) at 60 mins: 100%
[14]; Anopheles stephensi
  mortality at 20 ppm: 80%
[15]; 1 h, read-out: Knockdown
  pest or weed control at 20 ppm: 80%
[15]; 48 h
  mortality at 20 ppm: 100%
[16]
  mortality at 5 ppm: 98%
[17]
  mortality at 5 ppm: 78%
